What was measured:
[1] = tested on: leukocyte/macrophage infiltration in the vasculature; assay: FACS of single cells from mouse suprarenal aorta; type: in vivo; settings: mean±SEM
From the text: FIG. 2. […] (A) Quantification of gene expression levels in the mice suprarenal aorta region by real-time PCR (n=3 to 4). (B, C) Serum cytokines levels measured by ELISA (n=8 to 11). (D) FACS of single cells isolated from the mice suprarenal aorta region. Each sample is the pool of cells from three mice (n=3). (E, F) Quantification of the percentage of CD45+ leukocytes and CD64+, CD11c+M1-like macrophages in total cells from the FACS analysis. Ordinary one-way ANOVA followed by Tukey's test was performed for (A), (E) and (F). For ELISA in (B) and (C), to avoid the effect of the non-detected data point, a non-parametric Kruskal-Wallis test followed by Dunn's multiple comparisons was performed by adding zero to the missing data point. Data presented as mean±SEM. A p<0.05 for both the main test and post hoc test was considered statistically significant.
The suprarenal aorta region from euthanized mice were completely perfused with PBS containing 2% of heparin. Tissues were digested using a cocktail of 450 U/mL collagenase type I (#17100-017, Gibco), 125 U/mL collagenase type XI (#C7657, Sigma-Aldrich), 60 U/mL hyaluronidase type I-s (#H3606, Sigma-Aldrich) and 60 U/mL DNase-I (#10104159001, Roche) at 37° C. for 90 minutes. Single cells filtered through a 70 μm cell strainer were blocked by Fc block (#14-0161-85, eBioscience) for 5 minutes on ice. […] Data were analyzed using FlowJo v10.6.1.

RAW 264.7 cells = assay: Boyden chamber transwell migration assay; type: cell-based, murine; settings: in the presence of Ang II; 2.5 μM, 12 hours
Protocol: HUVECs were seeded in the lower chambers of the Transwells (#CLS3464, Sigma-Aldrich) and cultured up to 80% confluence before treatment with or without AngII (100 nM) for 6 hours in OptiMEM I reduced serum medium (#31985-070, Gibco). RAW 264.7 cells starved with OptiMEM I overnight were seeded (2×10^5 per well) in the upper chambers of the transwells and treated with vehicle (ethanol), OA (2.5 μM) or NO2—OA (2.5 μM) for additional 12 hours. Cells on the upper chamber were then removed by gently scraping with a cotton swab, and the membranes were fixed in 4% PFA for 15 min and stained with 0.1% crystal violet for 15 min at room temperature. Images were acquired by AMG Evos XI Core Imaging System. Quantification of the positively stained area was performed using Image J v1.52s.

CCCCCCCCC(=CCCCCCCCC(=O)O)[N+](=O)[O-] [NO2—OA, 10-nitro-octadec-9-enoic acid]
leucocytes (CD45+) in the vasculature, percentage of total cells [1]: 14.87±3.28% | pro-inflammatory M1 like macrophages (CD64+, CD11c+), percentage of total cells [1]: 3.27±0.42% | endothelial-dependent macrophage migration (RAW 264.7 cells): significantly inhibits

From US12728111B2, “Electrophilic compounds and electrophilic prodrugs for treating aneurysm” (University of Pittsburgh—Of the Commonwealth System of …, priority 2020, dated 2026)
